Data on four compounds can be found in PubChem BioAssay (NCI).

Common to all, as to assay: DTP human tumour cell line panel, 48 h
For assay [1], the system named is HL-60(TB) leukemia.
Assay [2] concerns SK-MEL-5 melanoma.
Assay [3] relates to SN12C renal.
Assay [4] concerns DU-145 prostate.
Assay [5] relates to SR leukemia.
Assay [6] deals with CAKI-1 renal.
Assay [7] has as its system EKVX NSCLC.
In assay [8] the test system is SK-OV-3 ovarian.
The subject of assay [9] is HOP-92 NSCLC.
Assay [10] relates to OVCAR-4 ovarian.

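96-well plates; 48 h exposure; 5 concentrations. Endpoints by linear interpolation between flanking doses. Not reached: highest tested concentration assigned. Here, GI50 denotes the concentration required for 50% inhibition of growth. Definition used: TGI = concentration required for complete inhibition of growth.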

`CN1C(=O)C2(c3ccccc31)C1CC3C(CO1)C1C2C3(CO)CN1C#N` (stereo not given): the concentration for total growth inhibition (TGI) in assay [1], in assay [2], in assay [3], in assay [4], in [5] and in [6] was greater than 100 µM each time. Also, the TGI in assay [7], in [8], in assay [9] and in assay [10] was greater than 100 µM throughout.

In the case of `CCCN(CCC)c1ccc(C=O)c(C)c1`, the GI50 (usually the concentration giving 50% growth inhibition) was 30.8 µM in [1]; 21.2 µM in assay [2]; 56.7 µM in assay [3]; 77.6 µM in assay [4]; 40.3 µM in assay [5]; 33.7 µM in assay [6]. Moreover, the GI50 is 24.2 µM in assay [7], greater than 100 µM in assay [8], 16.4 µM in [9] and 21.5 µM in assay [10]. Further, the TGI (usually the concentration giving total growth inhibition) in [1] was greater than 84.4 µM; in assay [2] it was greater than 61.9 µM; in assay [3], greater than 100 µM; in assay [4], greater than 100 µM; in [5], greater than 100 µM; in [6], greater than 100 µM. The TGI in [7] is greater than 100 µM; in assay [8] it was greater than 100 µM; in assay [9] it was 64.7 µM; in assay [10], greater than 100 µM.

`O=C(O)Cc1ccc(N=Nc2c(O)c(C(=O)O)cc3ccccc23)cc1`: the TGI in [1], in [2], in assay [3], in assay [4], in assay [5] and in assay [6] was greater than 100 µM each time. Moreover, the TGI in assay [7], in assay [8], in assay [9] and in [10] was greater than 100 µM each time.

With `CN(C)CCNC(=O)c1ccc2oc3cc4ccccc4c(=O)n3c2c1`, the GI50 is 30.4 µM in assay [1]; 22.6 µM in assay [2]; 46.6 µM in [3]; 33.4 µM in assay [4]; 32.9 µM in [5]; 17.1 µM in assay [6]. The GI50 in assay [7] is 27.5 µM; in [8], 63.8 µM; in assay [9], greater than 100 µM; in assay [10] it was 7.6 µM. Further, the TGI in assay [1] was greater than 100 µM; in assay [2], 43.6 µM; in [3], greater than 100 µM; in [4] it was greater than 100 µM; in assay [5] it was greater than 100 µM; in [6], 55.2 µM. In addition, the total growth inhibition concentration (TGI) in assay [7], in [8], in [9] and in [10] was greater than 100 µM each time.
